# Literature values, collected in patent US11564888B2, “Extended release compositions comprising trihexyphenidyl” (KASHIV SPECIALTY PHARMACEUTICALS, LLC, priority 2018, dated 2023).
# Settings: in vivo
structure (smiles),measurement,value
"OC(CCN1CCCCC1)(c1ccccc1)C1CCCCC1 (stereo not drawn) [trihexyphenidyl, α-cyclohexyl-α-phenyl-1-piperidinepropanol]",plasma half-life,about 3.7 hours
